Measurements from US20110207166A1, “Human bone marrow microenvironments and uses thereof” (priority 2009, published 2011).
“Also recorded” adds a separate entry of the source.

Legend:
CXCR4 = CXCR4 (Homo sapiens, UniProt P61073); settings: AML; reference [42]; cited from earlier work
MSC niche = assay: In vitro mesenchymal stem cell niche (cobblestone area) formation, phase contrast imaging; format: cell-based, human; settings: SDF-1/CXCL12 10 ng/ml, AMD3100 10 μM
Procedure: Fresh human BM samples were obtained from orthopedic surgery after informed consent (Tissue Donor Program of the Feinstein Institute). The buffy coat containing the mononucleated cells (MNC) was isolated by Ficoll-density gradient separation (Stem Cell Technology, Vancouver). MNC were plated at low density in 6-well plates in Alpha-Mem (Lonza), 20% heat-inactivated fetal bovine serum (Hyclone), 5 mM L-Glutamine and 100 Units/ml Peni/Strep (Stem Cell Technologies) for overnight adherence. After 24-48 hours, the non-adherent cell fraction was discharged by rigorous pipetting. At day 5, single-cell derived mesenchymal colonies were processed for immunohistochemistry (Vectastain ABC kit, Vector Laboratories, Burlingame, Calif.). MSC were stained for CD90/Thy-1 (Mouse anti-human mAb, Clone 5E10, BD Pharmingen), CD105 (Mouse anti-human mAb, clone 266, BD Pharmingen), CD146 (Mouse monoclonal [P1H12] Abcam). Cells were also labeled for flow cytometry with CD34-APC (Miltenyi Biotec), CD105-FITC (R&D), CD45-FITC, CD90-PECy5, CD146-PE and CXCR4-PE (BD Pharmingen) including matching isotype controls.
Polyurethane scaffold test discs (10×1.5 mm—Biomerix) were placed inside a cloning cylinder (Millipore Corporation, MA), one cylinder in each well of a 24-well plate (Falcon, BD). […]

[1] = tested on: AML cells in MSC-coated scaffolds; assay: In vivo mesenchymal leukemic niche in MSC-coated scaffolds implanted subcutaneously in NOD/SCID mice, CD45 immunohistochemistry; settings: 4 weeks; in situ injection twice per week; SDF-1/CXCL12 10 ng/ml; AMD3100 10 μM; human CD45 stain
Procedure: Polyurethane scaffolds (10×1.5 mm—Biomerix), coated in vitro with human BM-derived MSC (day 5-7), were implanted in a subcutaneous pocket on the dorsum of non-irradiated NOD/SCID mice (Jackson laboratory) according to an approved IACUC animal protocol. Empty scaffolds (without MSC seeding) were used as negative controls. CD34+ HSC (1×10^5—Stem Cell Technology, Vancouver) or primary AML cells (1×10^7—cryopreserved and thawed) were injected either in situ or retro-orbital in the mice and analyzed for engraftment. The mice were treated twice per week with in situ injections of SDF-1/CXCL12 (10 ng/ml), AMD3100 (10 μM) or PBS (control). At week 1, week 4 and week 8, mice were sacrificed and the scaffolds, femurs and spleens were processed and evaluated for cell survival in the mesenchymal niche by immunohistochemistry.
Harvested scaffolds were fixed in formalin solution 10%, neutral buffered (HistoPak-StatLab Medical Products-TX) and paraffin embedded and cut on slides. […]
Each experiment was performed in duplicate, with two mice per experiment in each treatment arm and one mouse as a negative control. Multiple slides per scaffold were analyzed for imaging by immunohistochemistry and light microscopy. […]

Sequence of CXCR4 (P61073 whole entry): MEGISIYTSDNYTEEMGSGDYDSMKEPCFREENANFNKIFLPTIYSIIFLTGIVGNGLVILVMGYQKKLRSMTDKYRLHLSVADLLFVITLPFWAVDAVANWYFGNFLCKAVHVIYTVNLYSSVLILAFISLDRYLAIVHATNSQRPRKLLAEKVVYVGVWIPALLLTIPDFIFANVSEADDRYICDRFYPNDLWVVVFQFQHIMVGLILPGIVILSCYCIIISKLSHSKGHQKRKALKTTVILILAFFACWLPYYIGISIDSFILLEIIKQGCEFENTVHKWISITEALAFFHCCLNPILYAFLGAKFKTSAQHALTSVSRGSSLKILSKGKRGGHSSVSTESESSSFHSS

Molecule | effect on chemoprotective effects of the stromal cell-leukemia interaction (CXCR4) | cobblestone area formation / migration of hematopoietic progenitors underneath the MSC (MSC niche) | MSC stromal layer and adherence of AML cells in MSC-coated scaffold [1]
c1ccc(CNCc2ccc(CN3CCCNCCNCCCNCC3)cc2)nc1 [AMD3465] | prevent the chemoprotective effects of the stromal cell-leukemia interaction | – | –
SDF-1/CXCL12: chemokine stromal-cell derived factor, ligand of CXCR4 (R&D Systems) | – | cobblestone area formation | thick proliferation of the MSC stromal layer with multiple adherent AML cells present; also recorded: upregulates adhesion of AML cells to the stroma; also recorded: induces hyperproliferation of the mesenchymal stroma compartment
c1cc(CN2CCCNCCNCCCNCC2)ccc1CN1CCCNCCNCCCNCC1 [AMD3100] | – | MSC remain empty and hematopoietic progenitors do not migrate underneath the MSC; also recorded: the cytoplasm remained empty | the stromal lining is thin and disrupted at several points, leaving AML cells free floating in proximity; also recorded: interact with AML homing by stem cell niche disruption at the level of the stromal layer; also recorded: thin stromal lining that was disrupted at several points, leaving AML cells free floating in proximity; also recorded: the MSC stroma became ruffled and non-adherent and AML remained only loosely attached
